Consider 6 compounds from patent US8748111B2, “Multiplexed olfactory receptor-based microsurface plasmon polariton detector” (Massachusetts Institute of Technology, priority 2008, dated 2014).

The structures appear in SMILES notation. Values joined by “and” are separate entries in the source; they are usually repeats but may differ in a detail not shown here. Equal entries are not always repeated. “Also recorded” adds a separate entry of the source.

Experiment [1] deals with T1, hOR17-4 (Homo sapiens, UniProt P34982, R25Q).
T1 sequence (P34982 with tags, fused parts or gaps R25Q): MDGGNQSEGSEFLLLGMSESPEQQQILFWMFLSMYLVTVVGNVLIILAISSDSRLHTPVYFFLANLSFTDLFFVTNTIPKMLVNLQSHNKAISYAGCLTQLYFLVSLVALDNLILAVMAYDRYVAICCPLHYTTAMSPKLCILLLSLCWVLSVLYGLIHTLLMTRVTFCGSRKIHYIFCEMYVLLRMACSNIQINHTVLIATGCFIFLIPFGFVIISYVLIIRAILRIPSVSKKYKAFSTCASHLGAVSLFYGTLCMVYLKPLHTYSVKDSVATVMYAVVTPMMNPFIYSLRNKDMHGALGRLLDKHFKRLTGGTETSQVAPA
Description: Intracellular calcium-ion mobility assay in induced HEK293S cells. The format is cell-based. Particulars: for cytosolic Ca2+ response to odorant: Fura-Red. On the set-up: of which 969 by code for the 323 amino acid hOR17-4-GlyGly-rho1D4 protein; made in house. How it is done:
To determine if receptors expressed at the surface of induced HEK293S rho5 cells was functional, we performed calcium-influx assays. In our heterologous HEK293S system, olfactory receptors can signal through the inositol triphosphate (IP3) pathway to release intracellular Ca2+, using the “promiscuous” G-protein Gαq.
HEK293S rho5 cells were seeded and grown on glass coverslips until they reached 80-90% confluency. Expression of hOR17-4 was then induced with media containing tetracycline (1 μg/ml) for 48 hours. Cells were then washed with PBS and loaded with the calcium sensitive dye Fluo-3 (Invitrogen) according to the manufacturers instructions. Coverslips were then mounted and visualized using time-lapse confocal microscopy. Experiments were conducted in PBS and odorant stocks were added by hand using a pipettor to final concentrations between 1-100 μM. Both specific and non-specific odorants were tested. As an additional control to test whether cells could increase internal calcium levels, 1 mM ATP was added.
The functional activity and specificity of hOR17-4 was probed in heterologous HEK293S cells by monitoring intracellular calcium-ion concentrations using time-lapse confocal microscopy (19). In our HEK293S cells, olfactory receptors can signal through the inositol triphosphate (IP3) pathway to release intracellular Ca^2+ from the ER, mediated by the “promiscuous” G-protein Gαq. Induced cells responded to the specific odorant bourgeonal at concentrations as low as 1 μM (FIG. 28). […] Importantly, nearly 100% of the cells were responsive to bourgeonal due to the stable-inducible nature of this system, a vast improvement over expression methods that relied on transient transfection with less than 5% of cells being responsive (3).
hOR17-4 expression in the stable HEK293S cell line was induced by 48-hour incubation in DMEM/F12 medium with GlutaMAX, supplemented with 1 μg/ml tetracycline. Then cells were loaded at 37° C. for 30 min with […] Fura-Red-AM (Molecular Probes) in serum-free DMEM/F12 medium and were subsequently washed with PBS and incubated in DMEM/F12 medium containing 10% FCS for 30 min to allow complete hydrolysis of intracellular Fura-Red-AM. Cytosolic Ca^2+ responses were recorded by confocal fluorescence microscopy (Zeiss LSM 510) using a water immersion objective (Zeiss Achroplan 63×, NA 1.2). Excitation was at 488 nm (Ar^+ laser); the 650 nm long pass emission filter was used to image Fura-Red at a rate of 1 image per second. Stock solutions of the tested odorants were prepared freshly in DMSO and diluted 1000-fold into PBS to give the desired concentrations.
A general note: A change in cytosolic calcium serves as a functional read-out for many receptors and channels.

For experiment [2], the target named is T1, hOR17-4. Description: Surface plasmon resonance (Biacore A100) odorant binding assay, detergent-solubilized receptor from HEK293S cells. On the set-up: of which 969 by code for the 323 amino acid hOR17-4-GlyGly-rho1D4 protein; made in house; lysate supernatant captured on the chip. Particulars: not rigorously determined due to low odorant solubility above 40 μM. The source says: First, the rho1D4 mAb was covalently attached to the dextran surface of a Biacore CM4 chip using standard amine-coupling chemistry. The hOR17-4 receptor protein was then non-covalently captured on the antibody via its C-terminal rho tag (TETSQVAPA (SEQ ID NO: 50)). Odorant ligands were then applied and odorant binding detected in real time via the mass-based refractive index change. […] Low affinity Biacore data is typically characterized by fast on- and off-rates, where curvature in the association and dissociation phase may not be observable. […] However, the sensorgram data shown reinforces the prediction of low, micromolar affinities for the two odorants.
All odorant binding experiments were performed at 25° C. on a Biacore™ A100 (GE Healthcare), which has a parallel flow configuration, allowing assay development (e.g., solubilization conditions) to be tested and optimized in parallel and multiplexed format. The sensor chip CM4, amine-coupling kit, HBS (10 mM Hepes, 0.15 M NaCl, pH 7.4) and PBS were from GE Healthcare. The detailed protocol (see Supporting Information) was adapted, with several key modifications, from that previously reported by Kaiser et al. (25). […]

Experiment [3] deals with T2, hOR17-4 (Homo sapiens, UniProt P34982).
T2 construct: made in house; host or cells: wheat germ cell-free extract (Roche RTS Wheat Germ CECF kit)
T2 sequence (P34982 1-312): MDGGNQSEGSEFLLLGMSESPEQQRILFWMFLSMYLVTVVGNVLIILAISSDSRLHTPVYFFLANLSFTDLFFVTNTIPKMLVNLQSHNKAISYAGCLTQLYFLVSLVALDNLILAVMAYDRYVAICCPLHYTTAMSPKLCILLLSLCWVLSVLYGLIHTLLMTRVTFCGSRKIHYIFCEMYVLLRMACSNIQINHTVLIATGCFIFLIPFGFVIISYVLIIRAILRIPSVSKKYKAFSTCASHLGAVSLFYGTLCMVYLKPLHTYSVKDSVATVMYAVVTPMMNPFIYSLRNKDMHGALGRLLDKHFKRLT
The experiment in a line: Surface plasmon resonance (Biacore T100) odorant binding assay, cell-free produced receptor. How it is done:
All odorant binding experiments were performed on a Biacore™ T100 (GE Healthcare, Uppsala, Sweden) at 25° C. The sensor chip CM4, amine coupling kit, HBS (10 mM Hepes, 0.15 M NaCl, pH 7.4) and PBS were from (GE Healthcare, Uppsala, Sweden).
A anti His-tag antibody (R&D Systems, Minneapolis, Minn., USA) at 5 μg/ml in 10 mM sodium acetate pH 4.75 was immobilized onto a series S sensor chip using standard amine-coupling chemistry in HBS running buffer at 10 μl/min (33). The amount of coupled antibody was about 13000 RU. Control surfaces were prepared similarly without protein derivatization and utilized as a reference surfaces for compound binding experiments. Cell-free lysate containing the expressed olfactory receptor was centrifuged for […] at 14000×g at 4° C., to remove larger particles. The supernatant, containing about 0.6 mg/ml olfactory receptor, was immediately captured on the surface plasmon resonance (SPR) chip using PBS and 3% (v/v) DMSO as running buffer at 10 μl/min. […] A 30 sec pulse of coupling reagents was injected to achieve the stable baseline needed for the kinetic assay.
Fresh odorant undecanal solutions were made as follows. Pure odorant was diluted in DMSO to 0.5 M. This solution was diluted 33.3 times in PBS to obtain a […] odorant solution in running buffer with 3% (v/v) DMSO. […]

The mark [4] stands for this setting: tetracycline-induced HEK293S cells.

`C/C=C/c1ccc(OC)cc1` [anithole]: in experiment [1] (setting [4]), the “cytosolic Ca2+ response to odorant” value is listed as “No response”.

Consider `CC(C)(C)c1ccc(CCC=O)cc1` [bourgeonal], for which the “cells responsive to odorant” value in experiment [1] (stable-inducible HEK293S cells) is given as around 100%. In addition, the “cytosolic Ca2+ response to odorant” value in experiment [1] (setting [4]) was “transient Ca^2+ signaling”. For the same compound, the “lowest odorant concentration giving a Ca2+ response” value in experiment [1] (tetracycline-induced HEK293S cells, confocal microscopy) was at most 1 µM. In the case of `CCc1ccc(CC(C)(C)C=O)cc1` [floralozone], in experiment [2], the equilibrium dissociation constant entry was “low micromolar range”. On to `CC(C=O)Cc1ccc(C(C)(C)C)cc1` (stereo not shown) [lilial], for which the equilibrium dissociation constant entry in experiment [2] is given as “low micromolar range”.

Consider `CCCCCCCC=O` [octanal], for which the “cytosolic Ca2+ response to odorant” value in experiment [1] (setting [4]) was “No response”. What is called Kd is the free concentration of one partner at which half of the binding sites on the other are occupied at equilibrium, for simple one-to-one binding. On to `CCCCCCCCCCC=O` [undecanal], for which, in experiment [1] (preincubation and co-application of 100 μM with bourgeonal 100 μM), the “inhibition of bourgeonal-induced hOR17-4 activation” value is listed as “Odorant response could be blocked; also recorded: inhibited hOR17-4 activation by bourgeonal”. For the same compound, the Kd in experiment [3] (equilibrium binding responses vs concentration fitted to a simple binding isotherm, 25° C., 3% DMSO, read-out: affinity constant, KD) is 22 µM and ~22 µM. Moreover, in experiment [3] (injections at 1.2, 3.7, 11, 33 and 100 uM), the “dose response binding (RU)” value was “binding response increases by increasing odorant concentration”.
